Measurements: patent publication US7273848B2, “Apolipoprotein A-I agonists and their use to treat dyslipidemic disorders” (priority 1997, dated 2007)
Non-standard residues stand in square brackets, D forms with d. Residues, ends and D or L forms follow the SMILES beside them. No end group written: not given here. 1Nal = N[C@@H](Cc1cccc2ccccc12)C(=O)O; Aib = CC(C)(N)C(=O)O

What was measured:
[1] = biological target: T1, LCAT (purified from human plasma) (Homo sapiens, UniProt P04180); experiment: LCAT activation assay; format: biochemical; conditions: LCAT activation as compared with native human ApoA-I (= 100%), equivalent masses
T1 construct: from tissue; host or cells: human plasma
T1 sequence (P04180 25-440): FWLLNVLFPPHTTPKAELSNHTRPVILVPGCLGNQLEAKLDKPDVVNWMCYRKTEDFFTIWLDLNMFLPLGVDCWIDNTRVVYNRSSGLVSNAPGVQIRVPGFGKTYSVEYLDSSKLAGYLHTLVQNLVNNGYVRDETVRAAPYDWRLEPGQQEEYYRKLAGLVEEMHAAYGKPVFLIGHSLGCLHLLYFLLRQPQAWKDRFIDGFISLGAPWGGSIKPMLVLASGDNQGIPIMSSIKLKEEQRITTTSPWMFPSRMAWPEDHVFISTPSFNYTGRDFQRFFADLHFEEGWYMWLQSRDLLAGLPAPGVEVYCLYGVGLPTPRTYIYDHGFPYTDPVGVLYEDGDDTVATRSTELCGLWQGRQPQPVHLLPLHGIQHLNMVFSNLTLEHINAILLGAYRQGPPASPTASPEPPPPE
How it was run: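 Substrate SUVs of EPC or POPC with 14C-cholesterol (20:1 molar ratio), in 10 mM Tris, 0.14 M NaCl, 1 mM EDTA, pH 7.4, were preincubated with peptide or equal mass of plasma ApoA-I. Reaction started with human plasma LCAT; activation was measured as cholesterol-to-ester conversion relative to ApoA-I (100%).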

[2] = Circular dichroism helicity determination; format: physicochemical; conditions: percent helicity; for He (%) TFE: 5 μM peptide, 90% vol TFE; for He (%) TFE / He (%) SUVs: 37° C.; for He (%) free: unbound peptide 5 μM in 5 mM phosphate buffer, pH 7.4, 37° C.; for He (%) SUVs: peptide-SUV complexes (20:1 EPC:Chol., Ri=30 and Ri=50); for He (%) mics: peptide-micelle complexes, Ri=100, 37° C.
Description: Far UV circular dichroism spectra were recorded between 190 and 260 nm (in 0.5 nm or 0.2 nm increments) with a AVIV62DS spectrometer (AVIV Associates, Lakewood, N.J., USA) equipped with a thermoelectric cell holder and sample changer. The instrument was calibrated with (+)-10-[…]. Between one and three scans were collected for each sample, using 10 cm, 5 cm, 1 cm and 0.1 cm path length quartz Suprasil cells, respectively, for peptide concentrations of 10^−7 M to 10^−4 M. The bandwidth was fixed at 1.5 nm and the scan speed to 1s per wavelength step. The reported data are the mean of at least 2 or 3 independent measurements.
After background substraction, spectra were converted to molar ellipticity (θ) per residue in deg. […] dmol^−1. The peptide concentration was determined by amino acid analysis and also by absorption spectrometry on a Perkin Elmer Lambda 17 UV/Visible spectrophotometer when the peptide contained a chromophore (tryptophane, dansyl, naphtylalanine).
CD spectra were obtained with free, unbound peptide (5 μM in 5 mM phosphate buffer, pH 7.4); with peptide-SUV complexes (20:1 EPC:Chol., Ri=30 and Ri=50); with peptide-micelle complexes (1-myristoyl-2-hydroxy-sn-glycero-3-phosphatidyl choline, Ri=100); and with free, unbound peptide in the presence of 2,2,2-trifluoroethanol (TFE) (5 μM peptide, 90% vol TFE).
The SUVs were obtained by dispersing the lipids (10 mM, 20:1 EPC:Chol., Avanti Polar Lipids, AL) in phosphate buffer (5 mM, pH 7.4) with bubbling N2 for 5 min., followed by sonication (1.5 hr.) in a bath sonicator. The homogeneity of the preparation was checked by FPLC.
The micelles were obtained by dispersing the lipid (6 mM 1-myristoyl-2-hydroxy-sn-glycero-3-phosphatidyl choline, Avanti Polar Lipids, AL) in phosphate buffer (5 mM, pH 7.4) with bubbling N2 for 5 min., followed by vortexing.
To obtain the peptide-SUV complexes, SUVs were added to the peptide (5 μM in 5 mM phosphate buffer, pH 7.4) at a phospholipid-peptide molar ratio (Ri) of 30 or 50.
To obtain the peptide-micelle complexes, micelles were added to the peptide (5 μM in 5 mM phosphate buffer, pH 7.4) at a Ri of 100.
All spectra were recorded at 37° C.
The degree of helicity of the peptides in the various conditions was determined from the mean residue ellipticity at 222 nm (Chen et al., 1974, Biochemistry 13:3350-3359) or by comparing the CD spectra obtained to reference spectra available on databases (16 helical reference spectra from Provencher & Glockner, 1981, Biochemistry 20:33-37; denatured protein reference spectra from Venyaminov et al., 1993, Anal. Biochem. 214:17-24) using the CONTIN curve-fitting algorithm version 2DP, CD-1 pack (August 1982) (Provencher, 1982, Comput. Phys. Commun. 27:213-227, 229-242). Acceptable fit was determined using the statistical analysis methodology provided by the CONTIN algorithm. The error of all methods was ±5% helicity.

PVLELFENLLERLGDALQKKLK [peptide 148]
ACTIVITY (%) LCAT [1]: 75%
He (%) TFE [2]: 80%
He (%) free [2]: 10%
He (%) SUVs [2]: 23%
He (%) mics [2]: 76%

PVLDLFRELLEELQKKLK [compound 220]
ACTIVITY (%) LCAT [1]: 22%
He (%) TFE [2]: 64%
He (%) free [2]: 27%
He (%) SUVs [2]: 54%
He (%) mics [2]: 64%

VLDLFRELLNELLEALKQKLK [compound 67]
ACTIVITY (%) LCAT [1]: 14%
He (%) TFE [2]: 94%
He (%) free [2]: 81%
He (%) SUVs [2]: 84%
He (%) mics [2]: 90%

PVLDLFNELLRELLEALQKKLK [compound 40]
ACTIVITY (%) LCAT [1]: 25%
He (%) TFE [2]: 77%
He (%) free [2]: 66%
He (%) SUVs [2]: 79%
He (%) mics [2]: 84%

Ac-PVLDLFRELLEEWKQKLK-NH2 [compound 215]
ACTIVITY (%) LCAT [1]: 38%
He (%) TFE [2]: 68%
He (%) free [2]: 28%
He (%) SUVs [2]: 53%
He (%) mics [2]: 63%

Ac-PVLDLFRELLEELKQKLK-NH2 [compound 193]
ACTIVITY (%) LCAT [1]: 96%
He (%) TFE [2]: 87%
He (%) free [2]: 34%
He (%) SUVs [2]: 87%
He (%) mics [2]: 88%

PVLDLFRNLLEKLLEALEQKLK [compound 49]
ACTIVITY (%) LCAT [1]: 22%
He (%) TFE [2]: 57%
He (%) free [2]: 57%
He (%) SUVs [2]: 52%
He (%) mics [2]: 65%

EWLKAFYEKVLEKLKELF [peptide 248, reference compound]
ACTIVITY (%) LCAT [1]: 3%
He (%) free [2]: 18%
He (%) SUVs [2]: 13%
He (%) mics [2]: 45%

PVLDWFRELLNELLEALKQKLK [compound 35]
ACTIVITY (%) LCAT [1]: 31%
He (%) free [2]: 49%
He (%) SUVs [2]: 61%
He (%) mics [2]: 59%

CC(C)C[C@H](NC(=O)[C@H](C)NC(=O)[C@H](CCC(=O)O)NC(=O)[C@H](CC(C)C)NC(=O)C(C)(C)NC(=O)[C@H](CCC(=O)O)NC(=O)[C@H](CC(N)=O)NC(=O)[C@H](CC(C)C)NC(=O)[C@H](CC(C)C)NC(=O)[C@H](CCC(=O)O)NC(=O)[C@H](CCCNC(=N)N)NC(=O)[C@H](Cc1c[nH]c2ccccc12)NC(=O)[C@H](CC(C)C)NC(=O)[C@H](CC(=O)O)NC(=O)[C@H](CC(C)C)NC(=O)[C@@H](NC(=O)[C@@H]1CCCN1)C(C)C)C(=O)N[C@@H](CCCCN)C(=O)N[C@@H](CCC(N)=O)C(=O)N[C@@H](CCCCN)C(=O)N[C@@H](CC(C)C)C(=O)N[C@@H](CCCCN)C(=O)O [compound 41, PVLDLWRELLNEXLEALKQKLK] (H-PVLDLWRELLNE[Aib]LEALKQKLK-OH)
ACTIVITY (%) LCAT [1]: 25%
He (%) TFE [2]: 69%
He (%) free [2]: 53%
He (%) SUVs [2]: 85%
He (%) mics [2]: 73%

CC(C)C[C@H](NC(=O)[C@H](C)NC(=O)[C@H](CCC(=O)O)NC(=O)[C@H](Cc1cccc2ccccc12)NC(=O)[C@H](CC(C)C)NC(=O)[C@H](CCC(=O)O)NC(=O)[C@H](CC(N)=O)NC(=O)[C@H](CC(C)C)NC(=O)[C@H](CC(C)C)NC(=O)[C@H](CCC(=O)O)NC(=O)[C@H](CCCNC(=N)N)NC(=O)[C@H](Cc1ccccc1)NC(=O)[C@H](CC(C)C)NC(=O)[C@H](CC(=O)O)NC(=O)[C@H](CC(C)C)NC(=O)[C@@H](NC(=O)[C@@H]1CCCN1)C(C)C)C(=O)N[C@@H](CCCCN)C(=O)N[C@@H](CCC(N)=O)C(=O)N[C@@H](CCCCN)C(=O)N[C@@H](CC(C)C)C(=O)N[C@@H](CCCCN)C(=O)O [compound 27, PVLDLFRELLNELZEALKQKLK] (H-PVLDLFRELLNEL[1Nal]EALKQKLK-OH)
ACTIVITY (%) LCAT [1]: 44%
He (%) TFE [2]: 81%
He (%) free [2]: 72%
He (%) SUVs [2]: 82%
He (%) mics [2]: 92%

PVLELFENLLERLLEALQKKLK [compound 161]
ACTIVITY (%) LCAT [1]: 27%

CC(C)C[C@H](NC(=O)[C@H](C)NC(=O)[C@H](CCC(=O)O)NC(=O)[C@H](CC(C)C)NC(=O)C(C)(C)NC(=O)[C@H](CCC(=O)O)NC(=O)[C@H](CC(N)=O)NC(=O)[C@H](CC(C)C)NC(=O)[C@H](CC(C)C)NC(=O)[C@H](CCC(=O)O)NC(=O)[C@H](CCCNC(=N)N)NC(=O)[C@H](Cc1ccccc1)NC(=O)[C@H](CCCCN)NC(=O)[C@H](CC(=O)O)NC(=O)[C@H](CC(C)C)NC(=O)[C@@H](NC(=O)[C@@H]1CCCN1)C(C)C)C(=O)N[C@@H](CCCCN)C(=O)N[C@@H](CCC(N)=O)C(=O)N[C@@H](CCCCN)C(=O)N[C@@H](CC(C)C)C(=O)N[C@@H](CCCCN)C(=O)O [compound 88, PVLDKFRELLNEXLEALKQKLK] (H-PVLDKFRELLNE[Aib]LEALKQKLK-OH)
ACTIVITY (%) LCAT [1]: 7%

DWFKAFYDKFFEKFKEFF [peptide 247, reference compound]
ACTIVITY (%) LCAT [1]: 3%

CC(C)C[C@H](NC(=O)[C@H](C)NC(=O)[C@H](CCC(=O)O)NC(=O)[C@H](Cc1c[nH]c2ccccc12)NC(=O)C(C)(C)NC(=O)[C@H](CCC(=O)O)NC(=O)[C@H](Cc1c[nH]c2ccccc12)NC(=O)[C@H](CC(C)C)NC(=O)[C@H](CCCCN)NC(=O)[C@H](CCC(=O)O)NC(=O)[C@H](CCCNC(=N)N)NC(=O)[C@H](Cc1ccccc1)NC(=O)[C@H](CCC(=O)O)NC(=O)[C@H](CC(=O)O)NC(=O)[C@H](CC(C)C)NC(=O)[C@@H](NC(=O)[C@@H]1CCCN1)C(C)C)C(=O)N[C@@H](CCCCN)C(=O)N[C@@H](CCC(N)=O)C(=O)N[C@@H](CCCCN)C(=O)N[C@@H](CC(C)C)C(=O)N[C@@H](CCCCN)C(=O)O [compound 111, PVLDEFREKLWEXWEALKQKLK] (H-PVLDEFREKLWE[Aib]WEALKQKLK-OH)
ACTIVITY (%) LCAT [1]: 0%

CC(=O)N1CCC[C@@H]1C(=O)N[C@H](C(=O)N[C@@H](CC(C)C)C(=O)N[C@@H](CC(=O)O)C(=O)N[C@@H](CC(C)C)C(=O)N[C@@H](Cc1ccccc1)C(=O)N[C@@H](CCCNC(=N)N)C(=O)N[C@@H](CCC(=O)O)C(=O)N[C@@H](CC(C)C)C(=O)N[C@@H](CC(C)C)C(=O)N[C@@H](CCC(=O)O)C(=O)N[C@@H](CCC(=O)O)C(=O)N[C@@H](CC(C)C)C(=O)N[C@@H](CCCCN)C(=O)N[C@@H](CCC(N)=O)C(=O)N[C@@H](CCCCN)C(=O)N[C@@H](CC(C)C)C(=O)N[C@@H](CCCCN)C(N)=O)C(C)C [compound 214] (Ac-[dP]VLDLFRELLEELKQKLK-NH2)
ACTIVITY (%) LCAT [1]: 39%

CC(C)C[C@H](NC(=O)[C@H](C)NC(=O)[C@H](CCC(=O)O)NC(=O)C(C)(C)NC(=O)C(C)(C)NC(=O)[C@H](CCC(=O)O)NC(=O)[C@H](CC(N)=O)NC(=O)[C@H](CC(C)C)NC(=O)[C@H](CCCCN)NC(=O)[C@H](CCC(=O)O)NC(=O)[C@H](CCCNC(=N)N)NC(=O)[C@H](Cc1ccccc1)NC(=O)[C@H](CCC(=O)O)NC(=O)[C@H](CC(=O)O)NC(=O)[C@H](CC(C)C)NC(=O)[C@@H](NC(=O)[C@@H]1CCCN1)C(C)C)C(=O)N[C@@H](CCCCN)C(=O)N[C@@H](CCC(N)=O)C(=O)N[C@@H](CCCCN)C(=O)N[C@@H](CC(C)C)C(=O)N[C@@H](CCCCN)C(=O)O [compound 110, PVLDEFREKLNEXXEALKQKLK] (H-PVLDEFREKLNE[Aib][Aib]EALKQKLK-OH)
ACTIVITY (%) LCAT [1]: 0%

VVLDLFRELLNELLEALKQKLK [compound 53]
ACTIVITY (%) LCAT [1]: 19%
